Laboratory results reported in US8263606B2 (Xenon Pharmaceuticals Inc., priority 2008, dated 2012).

What was measured:
sodium channel = test: Guanidine influx assay (14C-guanidine radiotracer flux, in vitro); type: cell-based, human or rat; conditions: guanidine influx assay using a known cell line that expresses a sodium channel
In short: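 Radiotracer read-out: intracellular 14C-guanidine counted after washing with guanidine-supplemented low-sodium buffer. Cells expressing human or rat channels get test agent plus aconitine activator and tracer, incubated at ambient temperature. Dilution series centred on 1 μM; IC50 by sigmoidal dose-response fit.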

CYP3A4 = CYP3A4 (Homo sapiens, UniProt P08684); test: Cytochrome P450 (CYP450) Inhibition Assay, CYP3A4 (Vivid fluorescence, BOMCC substrate); conditions: human, P450 Baculosomes (recombinant CYP3A4), probe BOMCC (Vivid substrate)
CYP3A4, sequence (P08684 whole entry): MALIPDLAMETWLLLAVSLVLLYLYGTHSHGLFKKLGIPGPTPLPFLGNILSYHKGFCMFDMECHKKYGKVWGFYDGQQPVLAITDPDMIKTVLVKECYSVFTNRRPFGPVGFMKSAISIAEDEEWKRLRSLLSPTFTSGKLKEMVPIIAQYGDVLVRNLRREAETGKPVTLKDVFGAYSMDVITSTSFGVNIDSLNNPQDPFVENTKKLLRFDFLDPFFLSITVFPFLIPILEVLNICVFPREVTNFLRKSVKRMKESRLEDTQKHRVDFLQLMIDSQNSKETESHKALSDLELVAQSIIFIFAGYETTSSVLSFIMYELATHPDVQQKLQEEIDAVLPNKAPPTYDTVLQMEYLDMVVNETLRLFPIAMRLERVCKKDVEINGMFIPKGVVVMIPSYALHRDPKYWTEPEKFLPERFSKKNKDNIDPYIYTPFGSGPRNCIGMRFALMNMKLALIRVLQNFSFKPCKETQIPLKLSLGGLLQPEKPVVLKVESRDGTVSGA

Compound: O=C1N(Cc2cccc(O)c2)c2ccccc2C12COc1cc3c(cc12)CCO3 (stereo not drawn) [Example 11.45, 1′-(3-hydroxybenzyl)-5,6-dihydrospiro[benzo[1,2-b:5,4-b′]difuran-3,3′-indol]-2′(1′H)-one]
- IC50 (sodium channel): 0.1 to 1 µM
- melting point: 225 to 227 °C
- inhibition at 10 µM (CYP3A4): > 50%

Compound: O=C1N(Cc2ccc(N3CCOCC3)cn2)c2ccccc2C12COc1cc3c(cc12)OCCO3 (stereo not drawn) [Example 33.3, 1′-[(5-morpholin-4-ylpyridin-2-yl)methyl]-2,3-dihydrospiro[furo[2,3-g][1,4]benzodioxine-8,3′-indol]-2′(1′H)-one]
- IC50 (sodium channel): 0.1 to 1 µM
- melting point: 204 to 206 °C
- inhibition at 10 µM (CYP3A4): < 50%

Compound: CC(C)c1nc(CN2C(=O)C3(COc4cc5c(cc43)OCO5)c3cccc(C#N)c32)cs1 (stereo not drawn) [Example 4.88, 1′-[(2-isopropyl-1,3-thiazol-4-yl)methyl]-2′-oxo-1′,2′-dihydrospiro[furo[2,3-f][1,3]benzodioxole-7,3′-indole]-7′-carbonitrile]
- IC50 (sodium channel; activity level class): 0.001 to 0.1 µM
- melting point: 162 to 163 °C
- inhibition at 10 µM (CYP3A4): > 50%

Compound: CN(C)c1ncc(CN2C(=O)C3(COc4cc5c(cc43)OCO5)c3ccccc32)s1 (stereo not drawn) [Example 11.1, 1′-{[2-(dimethylamino)-1,3-thiazol-5-yl]methyl}spiro[furo[2,3-f][1,3]benzodioxole-7,3′-indol]-2′(1′H)-one]
- IC50 (sodium channel): 0.001 to 0.1 µM
- melting point: 200 to 202 °C
- inhibition at 10 µM (CYP3A4): > 50%

Compound: O=C1N(Cc2cccnc2)c2ccccc2C12COc1ccc3nonc3c12 (stereo not drawn) [Example 4.125, 1-(pyridin-3-ylmethyl)spiro[furo[3,2-e][2,1,3]benzoxadiazole-8,3′-indol]-2′(1′H)-one]
- IC50 (sodium channel; activity level class): 1 to 10 µM
- melting point: 230 to 232 °C
- inhibition at 10 µM (CYP3A4): < 50%

Compound: Cc1noc2cc3c(cc12)C1(CO3)C(=O)N(Cc2ncccc2C(F)(F)F)c2ccccc21 (stereo not drawn) [Example 9.42, 3-methyl-1′-{[3-(trifluoromethyl)pyridin-2-yl]methyl}spiro[furo[3,2-f][1,2]benzisoxazole-5,3′-indol]-2′(1′H)-one]
- IC50 (sodium channel; activity level class): 0.1 to 1 µM
- melting point: 221 to 222 °C
- inhibition at 10 µM (CYP3A4): > 50%

Compound: O=C1N(Cc2ccc(Cl)s2)c2c(C(F)(F)F)cccc2C12COc1cc3c(cc12)OCO3 (stereo not drawn) [Example 4.75, 1-[(5-chloro-2-thienyl)methyl]-7′-(trifluoromethyl)spiro[furo[2,3-f][1,3]benzodioxole-7,3′-indol]-2′(1′H)-one]
- IC50 (sodium channel; activity level class): 0.1 to 1 µM
- melting point: 165 to 166 °C
- inhibition at 10 µM (CYP3A4): > 50%

Compound: COc1cc2c(cc1F)C1(CO2)C(=O)N(C[C@H]2CCCO2)c2ccccc21 (stereo partly drawn) [Example 4.66, 5-fluoro-6-methoxy-1′-[(2R)-tetrahydrofuran-2-ylmethyl]spiro[1-benzofuran-3,3′-indol]-2′(1′H)-one]
- IC50 (sodium channel; activity level class): 0.1 to 1 µM
- melting point: 106 to 116 °C
- inhibition at 10 µM (CYP3A4): < 50%

Compound: Cc1cc2c(cc1C)C1(CO2)C(=O)N(C(c2ccccc2)c2ccccc2)c2ccccc21 (stereo not drawn) [Example 2.3, 1′-(diphenylmethyl)-5,6-dimethylspiro[1-benzofuran-3,3′-indol]-2′(1′H)-one]
- IC50 (sodium channel; activity level class): 1 to 10 µM
- melting point: 193 to 195 °C
- inhibition at 10 µM (CYP3A4): < 50%

Compound: COCCOCCN1C(=O)C2(COc3cc4c(cc32)OCCO4)c2c1ccc1ncsc21 (stereo not drawn) [Example 9.71, 6′-[2-(2-methoxyethoxy)ethyl]-2,3-dihydrospiro[furo[2,3-g][1,4]benzodioxine-8,8′-[1,3]thiazolo[5,4-e]indol]-7′(6′H)-one]
- IC50 (sodium channel): 0.1 to 1 µM
- melting point: 156 to 158 °C
- inhibition at 10 µM (CYP3A4): > 50%

Compound: O=C1N(Cc2ncccc2C(F)F)c2ccccc2[C@]12COc1cc3c(cc12)OCCO3 [Example 11.81, (8S)-1′-{[3-(difluoromethyl)pyridin-2-yl]methyl}-2,3-dihydrospiro[furo[2,3-g][1,4]benzodioxine-8,3′-indol]-2′(1′H)-one]
- IC50 (sodium channel): 0.001 to 0.1 µM
- melting point: 181 to 182 °C
- inhibition at 10 µM (CYP3A4): < 50%

Compound: Cl.O=C1N(CC2CCNCC2)c2ccccc2C12COc1cc(F)c(F)cc12 (stereo not drawn) [Example 11.111, 5,6-difluoro-1′-(piperidin-4-ylmethyl)spiro[1-benzofuran-3,3′-indol]-2′(1′H)-one hydrochloride]
- IC50 (sodium channel): 0.001 to 0.1 µM
- melting point: > 200 °C
- inhibition at 10 µM (CYP3A4): > 50%

Compound: Nc1noc2cc3c(cc12)C1(CO3)C(=O)N(Cc2ccccn2)c2ccccc21 (stereo not drawn) [Example 44.1, 3-amino-1′-(pyridin-2-ylmethyl)spiro[furo[3,2-f][1,2]benzisoxazole-5,3′-indol]-2′(1′H)-one]
- IC50 (sodium channel): 0.1 to 1 µM
- melting point: 190 to 192 °C
- inhibition at 10 µM (CYP3A4): < 50%

Compound: O=C1CC[C@@H](CN2C(=O)C3(COc4cc5c(cc43)OCO5)c3ccccc32)N1 (stereo partly drawn) [Example 4.72, 1′-{[(2S)-5-oxopyrrolidin-2-yl]methyl}spiro[furo[2,3-f][1,3]benzodioxole-7,3′-indol]-2′(1′H)-one]
- IC50 (sodium channel; activity level class): 1 to 10 µM
- melting point: 121 to 130 °C
- inhibition at 10 µM (CYP3A4): > 50%

Compound: CC(C)CCN1C(=O)C2(COc3cc(O)c(C(=O)C(F)(F)F)cc32)c2ccccc21 (stereo not drawn) [Example 11.50, 6-hydroxy-1′-(3-methylbutyl)-5-(trifluoroacetyl)spiro[1-benzofuran-3,3′-indol]-2′(1′H)-one]
- IC50 (sodium channel): 1 to 10 µM
- melting point: 87 to 88 °C
- inhibition at 10 µM (CYP3A4): > 50%

Compound: O=C1N(Cc2ccc(F)cn2)c2ccccc2C12COc1cc3c(cc12)OCCO3 (stereo not drawn) [Example 4.100, 1-[(5-fluoropyridin-2-yl)methyl]-2,3-dihydrospiro[furo[2,3-g][1,4]benzodioxine-8,3′-indol]-2′(1′H)-one]
- IC50 (sodium channel; activity level class): 0.001 to 0.1 µM
- melting point: 174 to 176 °C
- inhibition at 10 µM (CYP3A4): < 50%

Compound: O=C1N(Cc2ccc(C(F)(F)F)o2)c2c(C(F)(F)F)cccc2C12COc1cc3c(cc12)OCO3 (stereo not drawn) [Example 4.74, 7′-(trifluoromethyl)-1′-{[5-(trifluoromethyl)-2-furyl]methyl}spiro[furo[2,3-f][1,3]benzodioxole-7,3′-indol]-2′(1′H)-one]
- IC50 (sodium channel; activity level class): 0.1 to 1 µM
- melting point: 95 to 98 °C
- inhibition at 10 µM (CYP3A4): > 50%

Compound: O=C(NCc1ccccc1Cl)c1ccccc1CN1C(=O)C2(COc3cc4c(cc32)CCO4)c2ccccc21 (stereo not drawn) [Example 12.16, N-(2-chlorobenzyl)-2-[(2′-oxo-5,6-dihydrospiro[benzo[1,2-b:5,4-b′]difuran-3,3′-indol]-1′(2′H)-yl)methyl]benzamide]
- IC50 (sodium channel): 0.1 to 1 µM
- melting point: 148 to 150 °C
- inhibition at 10 µM (CYP3A4): > 50%

Compound: O=C1CC[C@@H](CN2C(=O)C3(COc4cc5c(cc43)CCO5)c3ccccc32)N1 (stereo partly drawn) [Example 9.2, 1′-{[(2S)-5-oxopyrrolidin-2-yl]methyl}-5,6-dihydrospiro[benzo[1,2-b:5,4-b′]difuran-3,3′-indol]-2′(1′H)-one]
- IC50 (sodium channel; activity level class): 1 to 10 µM
- melting point: 133 to 136 °C
- inhibition at 10 µM (CYP3A4): < 50%

Compound: N#Cc1ccc2c(c1)OCC21C(=O)N(Cc2ccccn2)c2ccccc21 (stereo not drawn) [Example 4.105, 2′-oxo-1′-(pyridin-2-ylmethyl)-1′,2′-dihydrospiro[1-benzofuran-3,3′-indole]-6-carbonitrile]
- IC50 (sodium channel; activity level class): 1 to 10 µM
- melting point: 151 to 153 °C
- inhibition at 10 µM (CYP3A4): < 50%

Compound: O=C1N(Cc2cc3cccc(F)c3o2)c2ccccc2C12COc1cc3c(cc12)CCO3 (stereo not drawn) [Example 9.8, 1′-[(7-fluoro-1-benzofuran-2-yl)methyl]-5,6-dihydrospiro[benzo[1,2-b:5,4-b′]difuran-3,3′-indol]-2′(1′H)-one]
- IC50 (sodium channel; activity level class): 0.001 to 0.1 µM
- melting point: 192 to 193 °C
- inhibition at 10 µM (CYP3A4): > 50%

Compound: CS(=O)(=O)c1cccnc1CN1C(=O)C2(COc3cc4c(cc32)OCCO4)c2ccccc21 (stereo not drawn) [Example 11.79]
- IC50 (sodium channel): 0.1 to 1 µM
- melting point: > 250 °C
- inhibition at 10 µM (CYP3A4): < 50%

Compound: O=C1Nc2c(F)cccc2C12COc1cc3c(cc12)CCO3 (stereo not drawn) [Example 3.16, 7′-fluoro-5,6-dihydrospiro[benzo[1,2-b:5,4-b′]difuran-3,3′-indol]-2′(1′H)-one]
- IC50 (sodium channel; activity level class): 0.1 to 1 µM
- melting point: > 250 °C
- inhibition at 10 µM (CYP3A4): < 50%

Compound: Cn1cc(CN2C(=O)C3(COc4cc5c(cc43)OCCO5)c3ccccc32)ccc1=O (stereo not drawn) [Example 36, 1′-[(1-methyl-6-oxo-1,6-dihydropyridin-3-yl)methyl]-2,3-dihydrospiro[furo[2,3-g][1,4]benzodioxine-8,3′-indol]-2′(1′H)-one]
- IC50 (sodium channel): 0.1 to 1 µM
- melting point: 205 to 207 °C
- inhibition at 10 µM (CYP3A4): < 50%

Compound: COC(=O)c1ccc(CN2C(=O)C3(COc4cc5c(cc43)OCCO5)c3ccccc32)cc1 (stereo not drawn) [Example 9.59, methyl 4-[(2′-oxo-2,3-dihydrospiro[furo[2,3-g][1,4]benzodioxine-8,3′-indol]-1′(2′H)-yl)methyl]benzoate]
- IC50 (sodium channel): 0.001 to 0.1 µM
- melting point: 167 to 169 °C
- inhibition at 10 µM (CYP3A4): < 50%

Compound: CN(C(=O)CN1C(=O)C2(COc3cc4c(cc32)CCO4)c2ccccc21)c1ccccc1 (stereo not drawn) [Example 12.52, N-methyl-2-(2′-oxo-5,6-dihydrospiro[benzo[1,2-b:5,4-b′]difuran-3,3′-indol]-1′(2′H)-yl)-N-phenylacetamide]
- IC50 (sodium channel): 0.1 to 1 µM
- melting point: 234 to 238 °C
- inhibition at 10 µM (CYP3A4): > 50%

Compound: O=C1N(Cc2ccc3nonc3c2)c2ccccc2C12COc1cc3c(cc12)OCCO3 (stereo not drawn) [Example 4.122, 1-(2,1,3-benzoxadiazol-5-ylmethyl)-2,3-dihydrospiro[furo[2,3-g][1,4]benzodioxine-8,3′-indol]-2′(1′H)-one]
- IC50 (sodium channel; activity level class): 0.001 to 0.1 µM
- melting point: 164 to 166 °C
- inhibition at 10 µM (CYP3A4): > 50%

Compound: CCCCN(C)CCCN1C(=O)C2(COc3cc4c(cc32)CCO4)c2ccccc21.Cl (stereo not drawn) [Example 15.2, 1′-{3-[butyl(methyl)amino]propyl}-5,6-dihydrospiro[benzo[1,2-b:5,4-b′]difuran-3,3′-indol]-2′(1′H)-one hydrochloride]
- IC50 (sodium channel): 1 to 10 µM
- melting point: 96 to 99 °C
- inhibition at 10 µM (CYP3A4): > 50%
